# Structures can show the parent of a compound that is named as a salt.
# Molecular target: T1, Human RET kinase cytoplasmic domain (Homo sapiens, UniProt P07949)
# T1 construct: made in house
# T1 sequence (P07949 658-1114): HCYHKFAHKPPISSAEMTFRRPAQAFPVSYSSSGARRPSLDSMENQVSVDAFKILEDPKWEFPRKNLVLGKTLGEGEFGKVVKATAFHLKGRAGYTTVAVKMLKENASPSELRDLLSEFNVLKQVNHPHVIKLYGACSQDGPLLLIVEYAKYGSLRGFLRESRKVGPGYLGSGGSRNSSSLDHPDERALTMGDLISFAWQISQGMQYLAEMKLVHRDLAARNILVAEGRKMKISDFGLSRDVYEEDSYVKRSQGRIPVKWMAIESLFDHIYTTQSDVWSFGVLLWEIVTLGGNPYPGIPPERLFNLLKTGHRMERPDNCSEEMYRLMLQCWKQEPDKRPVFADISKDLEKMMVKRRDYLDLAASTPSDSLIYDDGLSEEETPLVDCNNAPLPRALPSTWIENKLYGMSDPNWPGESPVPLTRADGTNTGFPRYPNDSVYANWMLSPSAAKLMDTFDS
# Assay: RET kinase enzymatic assay
# Format: biochemical
# Description: GST-RET was purified using glutathione sepharose chromatography. The RET kinase enzymatic assay was performed in a total volume of 10 uL with increasing concentrations of RET kinase inhibitor as a singlet in a 384 well format as follows: RET inhibitor compound plates are prepared by adding 100 nL of RET inhibitor at different concentrations to a 384-well plate. 5 μL/well of a 2× enzyme mix (50 mM HEPES (4-(2-hydroxyethyl)-1-piperazineethanesulfonic acid); 1 mM CHAPS (3-[(3-cholamidopropyl)dimethylammonio]-1-propanesulfonate); 0.1 mg/mL BSA (bovine serum albumin); 1 mM DTT (dithiothreitol); 0.2 nM RET kinase) was added to the 384-well plate and incubated for 30 minutes at 23° C. 5 µL/well of a 2× substrate mix (50 mM HEPES; 1 mM CHAPS; 0.1 mg/mL BSA; 20 μM adenosine triphosphate; 20 mM MgCl2 and 1 μM biotinylated peptide substrate) was added and incubated for 1 hour at 23° C. […] IC50s were fitted using GraphPad Prism to a sigmoidal dose response.
row,Compound,IC50
1,CCOc1cc(-c2ccc(NC(=O)Nc3cc(C(F)(F)F)ccc3F)c(F)c2)c[nH]c1=O [Example 78],< 100 nM
2,CCOc1cc(-c2ccc(NC(=O)Nc3cc(C(F)(F)F)ccc3O)c(F)c2)c[nH]c1=O [Example 141],< 100 nM
3,CCCOc1cc(-c2ccc(NC(=O)Nc3ccc(OC4(C)COC4)c(C(F)(F)F)c3)cc2)c[nH]c1=O [Example 131],< 100 nM
4,CCOc1cc(-c2ccc(NC(=O)Nc3ccc(OC4(C)COC4)c(C(F)(F)F)c3)cc2F)c[nH]c1=O [Example 133],< 100 nM
5,"CCOc1cc(-c2ncc(NC(=O)Nc3ccc(C(C)N(C)C)c(C(F)(F)F)c3)c(C)n2)c[nH]c1=O (centres unmarked) [Example 176, 1-(4-(1-(Dimethylamino)ethyl)-3-(trifluoromethyl)phenyl)-3-(2-(5-ethoxy-6-oxo-1,6-dihydropyridin-3-yl)-4-methylpyrimidin-5-yl)urea]",< 100 nM
6,CCOc1cc(-c2ccc(NC(=O)Nc3ccc(Cl)c(Cl)c3)c(F)c2)c[nH]c1=O [Example 170],< 100 nM
7,"CCOc1cc(-c2ccc(NC(=O)Nc3ccc(OC(C)C)c(C(F)(F)F)c3)c(C)n2)c[nH]c1=O [Example 5, 1-(5′-Ethoxy-6-methyl-6′-oxo-1′,6′-dihydro-[2,3′-bipyridin]-5-yl)-3-(4-isopropoxy-3-(trifluoromethyl)phenyl)urea]",< 100 nM
8,O=C(Nc1ccc(F)c(C(F)(F)F)c1)Nc1ccc(-c2c[nH]c(=O)c(OCCCF)c2)cc1F [Example 107],< 100 nM
9,CCOc1cc(F)c(C(F)(F)F)cc1NC(=O)Nc1ccc(-c2c[nH]c(=O)c(OCC)c2)cc1F [Example 153],< 100 nM
10,CCOc1cc(-c2ccc(NC(=O)Nc3ccc(OC4(C)COC4)c(C(F)(F)F)c3)c(N(C)C)n2)c[nH]c1=O [Example 112],100 to 500 nM
11,CNc1cc(-c2ccc(NC(=O)Nc3ccc(OC4(C)COC4)c(C(F)(F)F)c3)c(F)c2)c[nH]c1=O [Example 95],< 100 nM
12,"CCOc1cc(-c2ncc(NC(=O)Nc3cc(-n4cnc(C)c4)cc(C(F)(F)F)c3)c(CC)n2)c[nH]c1=O [Example 56, 1-(2-(5-Ethoxy-6-oxo-1,6-dihydropyridin-3-yl)-4-ethylpyrimidin-5-yl)-3-(3-(4-methyl-1H-imidazol-1-yl)-5-(trifluoromethyl)phenyl)urea]",< 100 nM
13,CCOc1cc(-c2ccc(NC(=O)Nc3ccc(OC4(C)COC4)c(C(F)(F)F)c3)c(CC)n2)c[nH]c1=O [Example 102],< 100 nM
14,"CCOc1cc(=O)[nH]cc1-c1ncc(NC(=O)Nc2cnc(C(C)(C)O)c(C(F)(F)F)c2)c(C)n1 [Example 28, 1-(2-(4-Ethoxy-6-oxo-1,6-dihydropyridin-3-yl)-4-methylpyrimidin-5-yl)-3-(6-(2-hydroxypropan-2-yl)-5-(trifluoromethyl)pyridin-3-yl)urea]",< 100 nM
15,"Cc1cc(-c2ccc(NC(=O)Nc3ccc(OC4(C)COC4)c(C(F)(F)F)c3)c(F)c2)c[nH]c1=O [Example 7, 1-(2-fluoro-4-(5-methyl-6-oxo-1,6-dihydropyridin-3-yl)phenyl)-3-(4-((3-methyloxetan-3-yl)oxy)-3-(trifluoromethyl)phenyl)urea]",< 100 nM
16,CCOc1ccc(NC(=O)Nc2ccc(-c3c[nH]c(=O)c4ccoc34)cc2F)cc1C(F)(F)F [Example 98],< 100 nM
17,"CCOc1cc(-c2nc(C)c(NC(=O)Nc3ccc(CN(C)C)c(C(F)(F)F)c3)c(C)n2)c[nH]c1=O [Example 59, 1-(4-((Dimethylamino)methyl)-3-(trifluoromethyl)phenyl)-3-(2-(5-ethoxy-6-oxo-1,6-dihydropyridin-3-yl)-4,6-dimethylpyrimidin-5-yl)urea]",< 100 nM
18,COc1cc(-c2ccc(NC(=O)Nc3ccc(OC4(C)COC4)c(C(F)(F)F)c3)c(C)n2)c[nH]c1=O [Example 100],< 100 nM
19,"CCOc1cc(-c2ccc(NC(=O)Nc3ccc(OC(C)C)c(C(F)(F)F)c3)nc2C)c[nH]c1=O [Example 8, 1-(5′-Ethoxy-2-methyl-6′-oxo-1′,6′-dihydro-[3,3′-bipyridin]-6-yl)-3-(4-isopropoxy-3-(trifluoromethyl)phenyl)urea]",< 100 nM

# Other lines, results leading:
row,IC50,Compound
1,< 100 nM,"CCOc1cc(=O)[nH]cc1-c1ncc(NC(=O)Nc2cc(C(F)(F)F)c(CN3CCN(CC)CC3)cc2F)c(C)n1 [Example 191, 1-(2-(4-Ethoxy-6-oxo-1,6-dihydropyridin-3-yl)-4-methylpyrimidin-5-yl)-3-(4-((4-ethylpiperazin-1-yl)methyl)-2-fluoro-5-(trifluoromethyl)phenyl)urea trihydrochloride]"
2,< 100 nM,CCOc1cc(-c2ccc(NC(=O)Nc3ccc(OC4(C)COC4)c(C(F)(F)F)c3)cc2)c[nH]c1=O [Example 140]
3,< 100 nM,CCOc1cc(-c2ccc(NC(=O)Nc3ccc(CC(C)(C)C#N)c(C(F)(F)F)c3)c(F)c2)c[nH]c1=O [Example 81]
4,< 100 nM,"CCOc1cc(-c2ncc(NC(=O)Nc3cc(C(F)(F)F)c(CN(C)C)cc3F)c(C)n2)c[nH]c1=O [Example 190, 1-(4-((Dimethylamino)methyl)-2-fluoro-5-(trifluoromethyl)phenyl)-3-(2-(5-ethoxy-6-oxo-1,6-dihydropyridin-3-yl)-4-methylpyrimidin-5-yl)urea dihydrochloride]"
5,< 100 nM,"CCOc1cc(=O)[nH]cc1-c1ncc(NC(=O)Nc2cc(C(C)(C)C(F)(F)F)on2)cn1 [Example 180, 1-(2-(4-Ethoxy-6-oxo-1,6-dihydropyridin-3-yl)pyrimidin-5-yl)-3-(5-(1,1,1-trifluoro-2-methylpropan-2-yl)isoxazol-3-yl)urea hydrochloride]"
6,< 100 nM,"CCOc1cc(-c2nc(C)c(NC(=O)Nc3ccc(CN4CCN(CC)CC4)c(C(F)(F)F)c3)c(C)n2)c[nH]c1=O [Example 33, 1-(2-(5-Ethoxy-6-oxo-1,6-dihydropyridin-3-yl)-4,6-dimethylpyrimidin-5-yl)-3-(4-((4-ethylpiperazin-1-yl)methyl)-3-(trifluoromethyl)phenyl)urea]"
7,< 100 nM,"CCOc1cc(-c2ncc(NC(=O)Nc3ccc(CC(C)(C)C#N)c(C(F)(F)F)c3)c(C)n2)c[nH]c1=O [Example 14, 1-(4-(2-Cyano-2-methylpropyl)-3-(trifluoromethyl)phenyl)-3-(2-(5-ethoxy-6-oxo-1,6-dihydropyridin-3-yl)-4-methylpyrimidin-5-yl)urea]"
8,< 100 nM,"CCOc1cc(=O)[nH]cc1-c1ncc(NC(=O)Nc2ccc(CC(C)(C)CO)c(C(F)(F)F)c2)c(C)n1 [Example 47, 1-(2-(4-Ethoxy-6-oxo-1,6-dihydropyridin-3-yl)-4-methylpyrimidin-5-yl)-3-(4-(3-hydroxy-2,2-dimethylpropyl)-3-(trifluoromethyl)phenyl)urea]"
9,< 100 nM,"CC(C)(C)c1cc(NC(=O)Nc2ccc(-c3ccc(=O)[nH]c3)cc2)n(-c2ccccc2)n1 [Example 68, 1-(3-(tert-Butyl)-1-phenyl-1H-pyrazol-5-yl)-3-(4-(6-oxo-1,6-dihydropyridin-3-yl)phenyl)urea]"
10,< 100 nM,"CCOc1cc(=O)[nH]cc1-c1ncc(NC(=O)Nc2ccc(Cl)c(C(F)(F)F)c2)c(C)n1 [Example 54, 1-(4-Chloro-3-(trifluoromethyl)phenyl)-3-(2-(4-ethoxy-6-oxo-1,6-dihydropyridin-3-yl)-4-methylpyrimidin-5-yl)urea]"
11,< 100 nM,"CCOc1cc(-c2ncc(NC(=O)Nc3ccc(C(C)(C)O)c(C(F)(F)F)c3)c(C)n2)c[nH]c1=O [Example 71, 1-(2-(5-Ethoxy-6-oxo-1,6-dihydropyridin-3-yl)-4-methylpyrimidin-5-yl)-3-(4-(2-hydroxypropan-2-yl)-3-(trifluoromethyl)phenyl)urea]"
12,< 100 nM,"CCOc1cc(-c2ncc(NC(=O)Nc3ccc(C(C)O)c(C(F)(F)F)c3)c(C)n2)c[nH]c1=O (centres unmarked) [Example 10, 1-(2-(5-Ethoxy-6-oxo-1,6-dihydropyridin-3-yl)-4-methylpyrimidin-5-yl)-3-(4-(1-hydroxyethyl)-3-(trifluoromethyl)phenyl)urea]"
13,< 100 nM,CCOc1cc(-c2ccc(NC(=O)Nc3ccc(OC4(CO)CC4)c(C(F)(F)F)c3)c(F)c2)c[nH]c1=O [Example 123]
14,< 100 nM,"CCOc1cc(-c2ncc(NC(=O)Nc3ccc(CN(C)C)c(C(F)(F)F)c3)c(C)n2)c[nH]c1=O [Example 58, 1-(4-((Dimethylamino)methyl)-3-(trifluoromethyl)phenyl)-3-(2-(5-ethoxy-6-oxo-1,6-dihydropyridin-3-yl)-4-methylpyrimidin-5-yl)urea]"
15,< 100 nM,CC1(Oc2ccc(NC(=O)Nc3ccc(-c4ccc(=O)[nH]c4)cc3)cc2C(F)F)COC1 [Example 169]
16,< 100 nM,CCOc1cc(-c2ncc(NC(=O)Nc3ccc(OC4(C)COC4)c(C(F)(F)F)c3)c(C)n2)c[nH]c1=O [Example 96]

# Reference: patent US10294236B2, “Compounds as rearranged during transfection (RET) inhibitors” (GLAXOSMITHKLINE INTELLECTUAL PROPERTY DEVELOPMENT LIMITED, priority 2014, dated 2019)
